Results as given in article PMC7488288, “Understanding and Improving the Membrane Permeability of VH032-Based PROTACs” (ACS Medicinal Chemistry Letters, 2020).
Where two headings read alike, the source gives them in different places.

How the values were obtained:
VHL protein = system: VHL protein; set-up: method as in PMID 28288108, PMID 30721025; conditions: cited from earlier work
in vitro = conditions: PAMPA
VHL = target: T1, VHL (Homo sapiens, UniProt P40337); test: Fluorescence polarization (FP) competitive binding assay; conditions: 15 nM VCB protein, 10 nM FAM-labeled HIF-1α peptide JC9, read-out: Kd (FP-derived)
T1 construct: each well solution containing 15 nM VCB

[1] = for LPE: LPE = LogD(dec/w) – 1.06(ALogP) + 5.47
MV4;11 [2] = conditions: cited from earlier work; for pEC50 (MV4;11): cell proliferation, 48 h treatment, ref Chan et al. 2018 (ref1)
HL60 [3] = system: HL60; set-up: method as in Chan et al. 2018 (ref1); conditions: cell proliferation, 48 h treatment; ref Chan et al. 2018 (ref1); cited from earlier work
MV4;11 [4] = test: Cell proliferation assay, MV4;11; format: cell-based; conditions: Homo sapiens, 48 h treatment, read-out: pEC50 (MV4;11) (converted)
From the text: (§1) IX. Cell proliferation assay
(§2) Cell proliferation data were collected as described in Chan et al. 2018 pg. 511 titled “Cell

HL60 [5] = test: Cell proliferation assay, HL60; format: cell-based; conditions: for EC50: Homo sapiens, HL-60, 48 h treatment, read-out: pEC50 (HL60) (converted); for pEC50 (HL60): 48 h treatment
From the text: as §1, §2

VHL E3 ubiquitin ligase = system: VHL E3 ubiquitin ligase; set-up: method as in PMID 29018234; conditions: cited from earlier work

CC(=O)N[C@H](C(=O)N1C[C@H](O)C[C@H]1C(=O)NCc1ccc(-c2scnc2C)cc1)C(C)(C)SCCCCCCNC(=O)C[C@@H]1N=C(c2ccc(Cl)cc2)c2c(sc(C)c2C)-n2c(C)nnc21 [AT1]
fold lower binding affinity for the VHL protein compared to 8 (VHL protein): 5 fold

Cc1sc2c(c1C)C(c1ccc(Cl)cc1)=N[C@@H](CC(=O)OC(C)(C)C)c1nnc(C)n1-2 [Compound 1, reference compound]
Papp (in vitro; pH 7.4, PAMPA permeability (Pe)): ≥ 5 ×10⁻⁶ cm/s

Cc1ncsc1-c1ccc(CNC(=O)[C@@H]2C[C@@H](O)CN2C(=O)[C@@H](OC(=O)Cc2ccccc2)C(C)(C)C)cc1 [Compound 3]
Kd (VHL): 800 nM

Cc1ncsc1-c1ccc(CNC(=O)[C@@H]2C[C@@H](O)CN2C(=O)[C@@H](NC(=O)Cc2ccccc2)C(C)(C)C)cc1 [Compound 4]
LPE [1]: 2.0
Papp (in vitro; pH 7.4): ≥ 5 ×10⁻⁶ cm/s
Papp at 7 h (in vitro; pH 7.4): 8.6 ×10⁻⁶ cm/s

Cc1ncsc1-c1ccc(CNC(=O)[C@@H]2C[C@@H](O)CN2C(=O)[C@@H](OC(=O)CCOCCOCCOCCNC(=O)Cc2ccccc2)C(C)(C)C)cc1 [Compound 5]
fold more permeable than 6 (PAMPA) (pH 7.4): 1.5 fold
ΔLPE (lower than 3) ([1]; comparator compound 3): 0.8
Papp at 7 h (in vitro; pH 7.4): 0.3 ± 0.1 ×10⁻⁶ cm/s

Cc1ncsc1-c1ccc(CNC(=O)[C@@H]2C[C@@H](O)CN2C(=O)[C@@H](NC(=O)CCOCCOCCOCCNC(=O)Cc2ccccc2)C(C)(C)C)cc1 [Compound 6]
ΔLPE (lower than 4) ([1]; comparator compound 4): 0.4
Papp at 7 h (in vitro; pH 7.4): 0.2 ± 0.03 ×10⁻⁶ cm/s

Cc1ncsc1-c1ccc(CNC(=O)[C@@H]2C[C@@H](O)CN2C(=O)[C@@H](NC(=O)COCCOCCNC(=O)C[C@@H]2N=C(c3ccc(Cl)cc3)c3c(sc(C)c3C)-n3c(C)nnc32)C(C)(C)C)cc1 [Compound 7]
fold more permeable than 8 (PAMPA) (pH 7.4): 20 fold
fold more permeable than 9 (PAMPA) (pH 7.4): 100 fold
fold more permeable than 15 (PAMPA) (pH 7.4): 120 fold
fold more permeable than 17 and 14 (PAMPA) (pH 7.4): 300 fold
LPE [1]: 0.4
pEC50 (MV4;11) (MV4;11 [2]): 6.75
Papp (in vitro; pH 7.4): > 0.6 ×10⁻⁶ cm/s
Papp at 15 h (in vitro; pH 7.4): 0.6 ×10⁻⁶ cm/s
pEC50 (HL60) (HL60 [3]): 5.84

Cc1ncsc1-c1ccc(CNC(=O)[C@@H]2C[C@@H](O)CN2C(=O)[C@@H](NC(=O)COCCOCCOCCNC(=O)C[C@@H]2N=C(c3ccc(Cl)cc3)c3c(sc(C)c3C)-n3c(C)nnc32)C(C)(C)C)cc1 [Compound 8]
fold difference in permeability vs 16 (PAMPA) (pH 7.4): 10 fold
fold less permeable than 7 (PAMPA) (pH 7.4): 20 fold
activity relative to 7 (cellular antiproliferation) (MV4;11 [2]; SI Table 2, MV4;11 and HL60): one log unit
pEC50 (MV4;11) (MV4;11 [2]): 7.57
Papp (in vitro; pH 7.4): > 0.6 ×10⁻⁶ cm/s
Papp at 15 h (in vitro; pH 7.4): 0.03 ± 0.01 ×10⁻⁶ cm/s
pEC50 (HL60) (HL60 [3]): 6.8

Cc1ncsc1-c1ccc(CNC(=O)[C@@H]2C[C@@H](O)CN2C(=O)[C@@H](NC(=O)[C@H](Cc2ccccc2)NC(=O)COCCOCCOCCNC(=O)C[C@@H]2N=C(c3ccc(Cl)cc3)c3c(sc(C)c3C)-n3c(C)nnc32)C(C)(C)C)cc1 [Compound 9]
EC50 (MV4;11 [4]): 457 nM
fold decrease in permeability vs 8 (PAMPA) (pH 7.4): 5 fold
LPE [1]: -1.1
decrease in LPE vs 8 ([1]; addition of a Phe residue to 8): 1.2 unit
Papp at 15 h (in vitro; pH 7.4): 0.006 ×10⁻⁶ cm/s
EC50 (HL60 [5]): 4170 nM

CC(=O)N1c2ccc(-c3ccc(C(=O)NCCOCCOCC(=O)N[C@H](C(=O)N4C[C@H](O)C[C@H]4C(=O)NCc4ccc(-c5scnc5C)cc4)C(C)(C)C)cc3)cc2[C@H](Nc2ccc(Cl)cc2)C[C@@H]1C [Compound 10]
fold difference in permeability vs 11 (PAMPA) (pH 7.4): 2 fold
LPE [1]: -0.1
pEC50 (MV4;11) (MV4;11 [2]): 6.24
Papp at 15 h (in vitro; pH 7.4): 0.3 ± 0.1 ×10⁻⁶ cm/s
pEC50 (HL60) (HL60 [3]): 6.17

CC(=O)N1c2ccc(-c3ccc(C(=O)NCCOCCOCCOCCOCC(=O)N[C@H](C(=O)N4C[C@H](O)C[C@H]4C(=O)NCc4ccc(-c5scnc5C)cc4)C(C)(C)C)cc3)cc2[C@H](Nc2ccc(Cl)cc2)C[C@@H]1C [Compound 11]
LPE [1]: 0.2
pEC50 (MV4;11) (MV4;11 [2]): 7.08
Papp at 15 h (in vitro; pH 7.4): 0.16 ± 0.14 ×10⁻⁶ cm/s
pEC50 (HL60) (HL60 [3]): 6.37

Cc1ncsc1-c1ccc(CNC(=O)[C@@H]2C[C@@H](O)CN2C(=O)[C@@H](NC(=O)COCCOCCOCCOCC(=O)N[C@H](C(=O)N2C[C@H](O)C[C@H]2C(=O)NCc2ccc(-c3scnc3C)cc2)C(C)(C)C)C(C)(C)C)cc1 [Compound 12]
LPE ([1]; listed as CM9 (12)): 0.8
Papp (in vitro; pH 7.4): 0.009 ×10⁻⁶ cm/s

Cc1ncsc1-c1ccc(CNC(=O)[C@@H]2C[C@@H](O)CN2C(=O)[C@@H](NC(=O)COCCOCCOCCOCCOCCOCC(=O)N[C@H](C(=O)N2C[C@H](O)C[C@H]2C(=O)NCc2ccc(-c3scnc3C)cc2)C(C)(C)C)C(C)(C)C)cc1 [Compound 13]
permeability relative to 12 (PAMPA): reduced by half
LPE ([1]; listed as CM11 (13)): 0.6
Papp (in vitro; pH 7.4): 0.005 ×10⁻⁶ cm/s
activity relative to 12 (cellular protein degradation assay) (VHL E3 ubiquitin ligase): two log units

Cc1ncsc1-c1ccc(CNC(=O)[C@@H]2C[C@H](O)CN2C(=O)[C@@H](NC(=O)COCCOCCOCCOCCOCCOCC(=O)N[C@H](C(=O)N2C[C@@H](O)C[C@H]2C(=O)NCc2ccc(-c3scnc3C)cc2)C(C)(C)C)C(C)(C)C)cc1 [Compound 14]
LPE ([1]; listed as CMP98 (14)): 1.7
Papp at 15 h (in vitro; pH 7.4): 0.002 ± 0.0002 ×10⁻⁶ cm/s

CC(=O)N[C@H](C(=O)N1C[C@H](O)C[C@H]1C(=O)NCc1ccc(-c2scnc2C)cc1)C(C)(C)SCCOCCNC(=O)C[C@@H]1N=C(c2ccc(Cl)cc2)c2c(sc(C)c2C)-n2c(C)nnc21 [Compound 15]
EC50 (MV4;11 [4]): 7240 nM
LPE [1]: −2.3
Papp at 15 h (in vitro; pH 7.4): 0.005 ± 0.003 ×10⁻⁶ cm/s
EC50 (HL60 [5]): 12600 nM

CC(=O)N[C@H](C(=O)N1C[C@H](O)C[C@H]1C(=O)NCc1ccc(-c2scnc2C)cc1)C(C)(C)SCCOCCOCCNC(=O)C[C@@H]1N=C(c2ccc(Cl)cc2)c2c(sc(C)c2C)-n2c(C)nnc21 [Compound 16]
EC50 (MV4;11 [4]): 692 nM
permeability relative to 15 (PAMPA): reduced by half
PAMPA permeability (Pe) (pH 7.4): 0.003 ± 8.4x10-5
LPE [1]: −2.6
Papp at 15 h (in vitro; pH 7.4): 0.003 ×10⁻⁶ cm/s
pEC50 (HL60) (HL60 [5]): BLQ

CC(=O)N[C@H](C(=O)N1C[C@H](O)C[C@H]1C(=O)NCc1ccc(-c2scnc2C)cc1)C(C)(C)SCCCCNC(=O)C[C@@H]1N=C(c2ccc(Cl)cc2)c2c(sc(C)c2C)-n2c(C)nnc21 [Compound 17]
EC50 (MV4;11 [4]): 617 nM
fold less permeable than 15 (PAMPA) (pH 7.4): 2.5 fold
LPE [1]: -3.1
LPE lower than 15 (ΔLPE) ([1]; alkyl-linked 17 vs PEG counterpart 15): 0.8
Papp at 15 h (in vitro; pH 7.4): 0.002 ×10⁻⁶ cm/s
pEC50 (HL60) (HL60 [5]): BLQ
